Test system: 935938-334-R-J1-PDC complex spheroid viability
Assay: Anticancer human tumor 935938-334-R-J1-PDC patient-derived small intestine adenocarcinoma cell line growth inhibition [POLQ]
Conditions: for IC50: curve of first compound; for viability, T/C: stronger effect = lower value
Method: Multicellular complex tumor spheroid response to Polymerase (POL) inhibitors (novobiocin, ART-558, RP6685) in combination with a variety of drugs and investigational agents in selected tumor cell lines
The POL inhibitors (novobiocin, ART-558, and RP6685) were evaluated both individually and in combination with standard of care and investigational anticancer small molecules within a complex spheroid model of solid tumors. . Complex spheroids include a stromal component modeled by human endothelial cells (HUVEC) and fibroblasts modeled by human mesenchymal stem cells (MSCs). The concentration ranges selected for each drug and investigational agent were based upon clinically achievable concentrations if the clinical Cmax of the agent was known.
Compounds. The drugs and investigational agents: novobiocin (NSC847541), ART-558 (NSC835418), RP-6685 (NSC848927), peposertib (NSC802822), ceralasertib (NSC780249), elimusertib (NSC800525), camonsertib (NSC841442), AZD-1390 (NSC803789), olaparib (NSC753686), talazoparib (NSC767125), rucaparib (NSC756644), sotorasib (NSC818433), MRTX-1133 (NSC836407), SN-38 (NSC673596), topotecan (NSC609699), epotoside (NSC141540), doxorubicin (NSC123127), gemcitabine (NSC613327), 5-fluorouracil (NSC19893), paclitaxel (NSC125973), vemurafenib (NSC761431), MSA-2 (NSC828583), SN-011 (NSC837082), adavosertib (NSC754352), prexasertib (NSC758257), carboplatin (NSC241240) and oxaliplatin (NSC266046), were obtained from the National Cancer Institute (NCI) Developmental Therapeutics Program Chemical Repository (21). The FDA-approved anticancer drug set is available from the Developmental Therapeutics Program at https://dtp.cancer.gov/organization/dscb/obtaining/. […] The stock solutions were prepared in dimethyl sulfoxide (DMSO, Sigma-Aldrich, St. Louis, MO, cat. D2650), except for the platinum compounds which were prepared in saline (Quality Biological, Gaithersburg, MD, cat. 114-055-101), at 800-fold the tested concentration and stored at -70 degrees C prior to their use. All drugs and investigational agents were tested over a range starting from a high concentration at or near the clinical Cmax and decreasing in half-log increments. If the clinical Cmax for an agent had not been determined, the highest concentration tested was 10 microM, except for SN-38, which was tested at a high concentration of 1 microM.
Cell Culture. All cells were maintained in an incubator at 37 degrees C and 5% CO2 with 95% humidity. The PDC lines were cultured according to standard operating procedures established by the NCI PDMR (https://pdmr.cancer.gov). Table 3 of the manuscript, lists the cell lines along with the number of the three cell types plated to form the mct-spheroids and media for tumor cell growth. After thawing, all PDC lines, except 997537-175-T-J1-PDC and 415267-285-R-J2-PDC, were cultured in Matrigel-coated flasks prepared with a working solution of 1X Ham's F-12 nutrient mix, without supplementation (Thermo Fisher Scientific, cat. 11765054), 100 U/mL penicillin-streptomycin (Thermo Fisher Scientific, cat. 15140122), and 2.5% Matrigel (Corning Inc., Corning, NY, cat. 354248) for the first three passages. The two PDC lines 997537-175-T-J1-PDC and 415267-285-R-J2-PDC were cultured on uncoated flasks. The 857933-349-R-J2-PDC line was cultured in 6C/Colon 1B media containing advanced DMEM/F-12 (Thermo Fisher Scientific, cat. 12634028), 10 mM HEPES (Thermo Fisher Scientific, cat. 15630080), 1X GlutaMAX supplement (Thermo Fisher Scientific, cat. 35050061), 0.1 mg/mL primocin (InvivoGen, San Diego, CA, cat. ant-pm-2), 10% defined fetal bovine serum, heat inactivated (HyClone Laboratories Inc., Logan, UT, cat. SH30070.03HI), 50% L-WRN conditioned media (ATCC, cat. CRL-3276), 1.25 mM N-Acetyl-L-cysteine (Sigma-Aldrich, cat. A9165), 10 mM nicotinamide (Sigma-Aldrich, cat. N0636), 1X B-27 supplement (Thermo Fisher Scientific, cat. 17504044), 1X N-2 supplement (Thermo Fisher Scientific, cat. […]

[1] = second compound 0.0316 µM, first compound 0.00316 µM
[2] = second compound 0.0316 µM, first compound 0.01 µM
[3] = second compound 0.0316 µM, first compound 0.0316 µM
[4] = second compound 0.0316 µM, first compound 0.1 µM
[5] = second compound 0.1 µM, first compound 0.00316 µM
[6] = second compound 0.1 µM, first compound 0.01 µM
[7] = second compound 0.1 µM, first compound 0.0316 µM
[8] = second compound 0.1 µM, first compound 0.1 µM
[9] = second compound 0.316 µM, first compound 0.00316 µM
[10] = second compound 0.316 µM, first compound 0.01 µM
[11] = second compound 0.316 µM, first compound 0.0316 µM
[12] = second compound 0.316 µM, first compound 0.1 µM
[13] = second compound 1 µM, first compound 0.00316 µM
[14] = second compound 1 µM, first compound 0.01 µM
[15] = second compound 1 µM, first compound 0.0316 µM
[16] = second compound 1 µM, first compound 0.1 µM
[17] = second compound 3.16 µM, first compound 0.00316 µM
[18] = second compound 3.16 µM, first compound 0.01 µM
[19] = second compound 3.16 µM, first compound 0.0316 µM
[20] = second compound 3.16 µM, first compound 0.1 µM
[21] = second compound 10 µM, first compound 0.00316 µM
[22] = second compound 10 µM, first compound 0.01 µM
[23] = second compound 10 µM, first compound 0.0316 µM
[24] = second compound 10 µM, first compound 0.1 µM
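Further: spheroids exposed to drugs for seven days before viability read.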
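Wherever viability, T/C is given: 100% = DMSO vehicle control wells.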

COc1cccc(OCCCN)c1-c1cc(Nc2cnc(C#N)cn2)n[nH]1 + COC1C(OC(N)=O)C(O)C(Oc2ccc3c(O)c(NC(=O)c4ccc(O)c(CC=C(C)C)c4)c(=O)oc3c2C)OC1(C)C
IC50 (second compound 0.0316 µM): 0.0496 µM
IC50 (second compound 0.1 µM): 0.0387 µM
IC50 (second compound 0.316 µM): 0.0479 µM
IC50 (second compound 1 µM): 0.0369 µM
IC50 (second compound 3.16 µM): 0.0369 µM
IC50 (second compound 10 µM): 0.0278 µM
viability, T/C [1]: 90.2%
viability, T/C [2]: 88.9%
viability, T/C [3]: 65.2%
viability, T/C [4]: 25.8%
viability, T/C (second compound 0.0316 µM, first compound 0.316 µM): 12.1%
viability, T/C (second compound 0.0316 µM, first compound 1 µM): 9.12%
viability, T/C [5]: 100%
viability, T/C [6]: 89.1%
viability, T/C [7]: 54.5%
viability, T/C [8]: 25.4%
viability, T/C (second compound 0.1 µM, first compound 0.316 µM): 12.5%
viability, T/C (second compound 0.1 µM, first compound 1 µM): 9.92%
viability, T/C [9]: 89.2%
viability, T/C [10]: 79.7%
viability, T/C [11]: 64.2%
viability, T/C [12]: 26.6%
viability, T/C (second compound 0.316 µM, first compound 0.316 µM): 10.6%
viability, T/C (second compound 0.316 µM, first compound 1 µM): 9.51%
viability, T/C [13]: 113%
viability, T/C [14]: 85.1%
viability, T/C [15]: 57.5%
viability, T/C [16]: 23.7%
viability, T/C (second compound 1 µM, first compound 0.316 µM): 11.1%
viability, T/C (second compound 1 µM, first compound 1 µM): 8.98%
viability, T/C [17]: 80.7%
viability, T/C [18]: 89.8%
viability, T/C [19]: 52%
viability, T/C [20]: 22.3%
viability, T/C (second compound 3.16 µM, first compound 0.316 µM): 11.1%
viability, T/C (second compound 3.16 µM, first compound 1 µM): 9%
viability, T/C [21]: 84.4%
viability, T/C [22]: 91.6%
viability, T/C [23]: 45.3%
viability, T/C [24]: 15.4%
viability, T/C (second compound 10 µM, first compound 0.316 µM): 11.8%
viability, T/C (second compound 10 µM, first compound 1 µM): 8.31%

Cn1ncnc1[C@H]1c2n[nH]c(=O)c3cc(F)cc(c23)N[C@@H]1c1ccc(F)cc1 + COC1C(OC(N)=O)C(O)C(Oc2ccc3c(O)c(NC(=O)c4ccc(O)c(CC=C(C)C)c4)c(=O)oc3c2C)OC1(C)C
IC50 (second compound 0.0316 µM): > 0.1 µM
IC50 (second compound 0.1 µM): > 0.1 µM
IC50 (second compound 0.316 µM): > 0.1 µM
IC50 (second compound 1 µM): > 0.1 µM
IC50 (second compound 3.16 µM): > 0.1 µM
IC50 (second compound 10 µM): > 0.1 µM
viability, T/C (second compound 0.0316 µM, first compound 0.000316 µM): 101%
viability, T/C (second compound 0.0316 µM, first compound 0.001 µM): 106%
viability, T/C [1]: 85.8%
viability, T/C [2]: 83.9%
viability, T/C [3]: 92.9%
viability, T/C [4]: 83.2%
viability, T/C (second compound 0.1 µM, first compound 0.000316 µM): 96.5%
viability, T/C (second compound 0.1 µM, first compound 0.001 µM): 113%
viability, T/C [5]: 103%
viability, T/C [6]: 89.8%
viability, T/C [7]: 88.5%
viability, T/C [8]: 83.5%
viability, T/C (second compound 0.316 µM, first compound 0.000316 µM): 94.7%
viability, T/C (second compound 0.316 µM, first compound 0.001 µM): 73.8%
viability, T/C [9]: 97.6%
viability, T/C [10]: 115%
viability, T/C [11]: 103%
viability, T/C [12]: 89.5%
viability, T/C (second compound 1 µM, first compound 0.000316 µM): 84%
viability, T/C (second compound 1 µM, first compound 0.001 µM): 105%
viability, T/C [13]: 121%
viability, T/C [14]: 94.8%
viability, T/C [15]: 90.8%
viability, T/C [16]: 70.6%
viability, T/C (second compound 3.16 µM, first compound 0.000316 µM): 101%
viability, T/C (second compound 3.16 µM, first compound 0.001 µM): 102%
viability, T/C [17]: 84.3%
viability, T/C [18]: 84.6%
viability, T/C [19]: 61.7%
viability, T/C [20]: 90%
viability, T/C (second compound 10 µM, first compound 0.000316 µM): 128%
viability, T/C (second compound 10 µM, first compound 0.001 µM): 92.7%
viability, T/C [21]: 85.4%
viability, T/C [22]: 105%
viability, T/C [23]: 78.7%
viability, T/C [24]: 95.8%
